Measurements taken from US20160213633A1, “METHOD OF INDUCING ANTI-GLATIRAMER ACETATE ANTIBODY RESPONSE” (Teva Pharmaceutical Industries, Ltd., priority 2015, published 2016).
Where two headings read alike, the source gives them in different places.

Key:
anti-GA IgG antibodies = test system: anti-GA IgG antibodies
Procedure: Sample positivity of each screen positive sample of each patient was confirmed in further testing by comparison to the confirmatory cut-point.
Unspiked and spiked samples were tested according to the method but only in 1/500 dilution.
The confirmatory cut-point factor is calculated to set the false positive rate at 1%. Reported value (RV) were the unspiked sample avg. ODA and the spiked sample avg. OD. RV were obtained from 50 naïve individuals, each measured 4 times over 2 days by 2 analysts.
Percent RA inhibition was calculated according to the following equation:
Percent inhibition=100×(1−(RA of spiked)/(RA of unspiked))

[1] = test system: anti-GA specific IgG antibodies; details: for average anti-GA IgG response (Screening RA %): GA treatment group, 40 mg sc three times a week, 1/500 dilution
Procedure: The screening results of the 1/500 dilution are presented as RA %.
Analysis was performed using ELISA.
Each plate should include the following samples: • System suitability Test (SST)—wells coated with purified human IgG. • SST Blank—wells coated with the blocking buffer only (w/o hIgG and human serum sample). […] To be subtracted from the NHS & PHS controls and from the human tested serum samples. • Sample 1-Sample 13—different tested serum samples. Each sample applied in two dilutions ( 1/500 and 1/1000)
All tested human serum samples of different time points from the same individual should be tested (in triplicates), if possible, in the same plate to allow comparison.
Prepare a 1.0 ug/ml dilution of hIgG coating antibody and coat the plate at 100 ul/well.
For washing, empty plate and tap out residual liquid, fill each well with 300 ul washing buffer and then invert plate to empty, tap out residual liquid onto paper towel.
For blocking, add 300 ul/well of blocking buffer to each well, seal the plate and incubate at room temperature for 1 hour, and wash the plates three times.
For sample loading, add 100 ul diluted test samples and/or control sample and/or sample buffer to each well. Seal the plate and incubate for 2 hours at room temperature, empty plate, tap out residual liquid and wash three times.
For detection antibody, prepare 1:4000 dilution of the biotinylated anti-hIgG detection antibody by diluting 2.5 ul biotinylated anti-hIgG antibody to 10 ml of blocking buffer. Prepare 10 ml biotinylated anti-human IgG detection antibody solution per plate and add 100 ul of the prepared detection antibodies to each well. Seal the plate and incubate for 1 hour at room temperature. Then empty plate, tap out residual liquid and wash five times.
For streptavidin conjugated horseradish peroxidase (HRP), prepare working dilution of the streptavidin conjugated HRP in blocking buffer. Then add 100 ul/well of the prepared streptavidin conjugated HRP solution, following shaking the plate for a few seconds. Then incubate the plate for 1 hour at room temperature in the dark, following washing five times.
For enzymatic reaction, TMB (3,3,5,5-tetramethylbenzidine peroxidase) is used. Mix equal volumes of TMB Peroxidase Substrate (Part 1) and Peroxidase Substrate Solution B in a clean glass container immediately prior to use. Dispense 100 ul of TMB solution into each well and incubate the plate for 15-30 minutes in the dark at 37° C. Stop the reaction with 100 ul stop solution per well (1N sulphuric acid) and shake the plate for a few seconds. Read the absorbance (ABS) of each well at 450 nm.
For blank subtraction, subtract the calculated average absorbance (ABS) of SST blank from average (AVG) ABS value of the SST. Subtract the calculated AVG ABS of blank from AVG ABS value of each test sample including PHS and NHS control samples. All data points that fall below 0.000 are set equal to 0.000.
To overcome plate-to-plate variability, the results are normalized by dividing the absorbance (ABS) of each test sample (including the controls) with that of the SST. This value is the Relative Absorbance (RA) ratio and is multiplied by 100 expressed in percent. These values are the reported response values of the test. The RA value is calculated according to the following equation: […]
The RA values of the normal human serum samples obtained from untreated individuals are used to calculate a cut-point value of the test. The cut-point value is used to distinguish between negative and positive human serum samples. In case that the calculated cut point value of the study is lower than the RA of the detection limit (2*Blank) of the study, the cut point is calculated as follows: […]
The results of the other dilution ( 1/1000) will be reported for monitoring, to allow semi quantitative comparison of the tested serum defined as positive.
All samples of each patient were tested on the same plate, whenever it was possible.

L-glutamic acid polymer with L-alanine, L-lysine and L-tyrosine, acetate (salt) [GA]
Inhibition (%) (anti-GA IgG antibodies; Baseline visit; one line per patient): 68.2%
Inhibition (%) (anti-GA IgG antibodies; Baseline; confirmation test, spiking with GA; each line one patient): 65.5%
Inhibition (%) (anti-GA IgG antibodies; Month 1; confirmation test): 63.8%
Confirmed Positivity (Yes/No) (anti-GA IgG antibodies; Month 1; individual patient): YES
Inhibition (%) (anti-GA IgG antibodies; Month 1 visit, individual patient): 18.7%
Inhibition (%) (anti-GA IgG antibodies; Month 1 visit; individual patient): 63.2%
Confirmed Positivity (Yes/No) (anti-GA IgG antibodies; Month 3; individual patient): YES
Inhibition (%) (anti-GA IgG antibodies; Month 3 visit, individual patient): 47.0%
Inhibition (%) (anti-GA IgG antibodies; Month 6; confirmation test): 61.1%
Confirmed Positivity (Yes/No) (anti-GA IgG antibodies; Month 6; individual patient): YES
Confirmed Positivity (Yes/No) (anti-GA IgG antibodies; Month 6 visit, individual patient): YES
Inhibition (%) (anti-GA IgG antibodies; Month 9; confirmation test): 56.8%
Confirmed Positivity (Yes/No) (anti-GA IgG antibodies; Month 9; individual patient): YES
Confirmed Positivity (Yes/No) (anti-GA IgG antibodies; Month 9 visit, individual patient): YES
Inhibition (%) (anti-GA IgG antibodies; Month 12; confirmation test): 58.5%
Confirmed Positivity (Yes/No) (anti-GA IgG antibodies; Month 12; individual patient): YES
Confirmed Positivity (Yes/No) (anti-GA IgG antibodies; Month 12 visit, individual patient): YES
Inhibition (%) (anti-GA IgG antibodies; Month 18; confirmation test): 60.2%
Confirmed Positivity (Yes/No) (anti-GA IgG antibodies; Month 18; individual patient): YES
Confirmed Positivity (Yes/No) (anti-GA IgG antibodies; Month 18 visit, individual patient): YES
Inhibition (%) (anti-GA IgG antibodies; Month 24; confirmation test): 66.8%
Inhibition (%) (anti-GA IgG antibodies; Month 24; confirmation test; individual patient): 66.7%
Confirmed Positivity (Yes/No) (anti-GA IgG antibodies; Month 24; individual patient): YES
Confirmed Positivity (Yes/No) (anti-GA IgG antibodies; Month 24 visit, individual patient): YES
Inhibition (%) (anti-GA IgG antibodies; confirmation test, individual patient, Month 1): 63.3%
Inhibition (%) (anti-GA IgG antibodies; confirmation test, individual patient, Month 18): 59.5%
Inhibition (%) (anti-GA IgG antibodies; confirmation test, individual patient, Month 24): 58.2%
presence of anti-GA IgG Abs in tested patients (anti-GA IgG antibodies; every tested patient (262 patients)): confirmed positive
positivity of non-baseline samples verified in the confirmatory test (anti-GA IgG antibodies; screen positive non-baseline samples; confirmatory cut-point […]): 99.9%
Sample Positivity ([1]; Baseline visit, RA % vs cut-point 1.4, one line per patient): Negative
Sample Positivity ([1]; Baseline, cut-point RA % of 1.4, individual patient): Negative
average anti-GA IgG response (Screening RA %) ([1]; Baseline): 0.4568 RA %
average anti-GA IgG response (Screening RA %) ([1]; Month 1): 34.75 RA %
average anti-GA IgG response (Screening RA %) ([1]; Month 3): 67.72 RA %
average anti-GA IgG response (Screening RA %) ([1]; Month 6): 39.69 RA %
average anti-GA IgG response (Screening RA %) ([1]; Month 9): 30.61 RA %
average anti-GA IgG response (Screening RA %) ([1]; Month 12): 28.94 RA %
average anti-GA IgG response (Screening RA %) ([1]; Month 18): 24.9 RA %
average anti-GA IgG response (Screening RA %) ([1]; Month 24): 23.36 RA %
Sample Positivity ([1]; Month 1, RA % vs cut-point 1.4, one line per patient): POSITIVE
Sample Positivity ([1]; Month 2 (so in the source), RA % vs cut-point 1.4, patient 537414): POSITIVE
Sample Positivity ([1]; Month 3, RA % vs cut-point 1.4, one line per patient): POSITIVE
Sample Positivity ([1]; Month 3, cut-point RA % of 1.4, individual patient): POSITIVE
Sample Positivity ([1]; Month 6, RA % vs cut-point 1.4, one line per patient): POSITIVE
Sample Positivity ([1]; Month 6, cut-point RA % of 1.4, individual patient): POSITIVE
Sample Positivity ([1]; Month 12, RA % vs cut-point 1.4, one line per patient): POSITIVE
antibody level versus baseline ([1]; about 12 months after the initial 40 mg/ml dose): higher than baseline
total anti-GA IgG levels ([1]; by month 6 of the treatment): decreased
rate of increase of antibody level ([1]; first month compared to after the first month to the third month): greater rate during the first month
non-baseline samples higher than the cut-point value (RA % of 1.4) ([1]; human, in vivo): 96.2%
antibody level after the peak versus baseline ([1]; month 24): did not reach the baseline level
